From patent publication US20240058456A1, “MOLECULES WITH SOLUBILITY TAG AND RELATED METHODS” (Merck Patent GmbH, priority 2020, published 2024) come the findings set out here.

This series is described as follows: Solubility and aggregation during conjugation. In kind it is physicochemical. The note with it: conjugation media.

Method: To this end, 1 eq antibody in a buffer with 150 mM NaCl, 25 mM Tris (pH 8.0) was mixed with a solution of the respective payload (10× or 20× surplus to the concentration of the antibody, depending on the number of linkage sites) and 6 U/ml of transglutaminase. The mixture was incubated for 16 h in a thermomixer at 37° C. and 450 rpm.
For linkage by maleimide chemistry, a 5 mg/mL solution of the respective antibody component in PBS (pH 7.4) was prepared (˜33 μM antibody). The antibody was reduced with TCEP ((tris(2-carboxyethyl)phosphine); ratio of antibody component to TCEP 1:2 to 1:6, depending on the desired DAR; TCEP was used as 2 mM stock, pH 7.0) or in some cases with DTT (dithiothreitol; 20 mM). After incubation for 0.5-2 hours (depending on the number of cysteines to be activated) in a 37° C. water bath, the reaction was allowed to cool down to room temperature.
The solution was desalted to conjugation buffer (10 mM sodium phosphate, pH 6.0, 2 mM EDTA, N2 degassed) on a Sephadex G25 column and adjusted to an antibody concentration of 0.2 mg/mL in conjugation buffer.
Conjugation was initiated by adding the reduced antibody to a solution of the appropriate maleimide-activated linker-payload construct at a suitable ratio (e.g. 1:4 to 1:8 ratio antibody to linker-payload construct for DAR 4; e.g. 1:20 ratio antibody to linker-payload construct for DAR 8). […]

Turning to `Cc1cccc2c(OC(=O)N(CCC(=O)NCCOS(=O)(=O)O)CCN(C)C(=O)OCc3ccc(NC(=O)[C@H](CCCNC(N)=O)NC(=O)[C@@H](NC(=O)CNC(=O)CNC(=O)CN)C(C)C)cc3)cc3c(c12)[C@H](CCl)CN3C(=O)c1cn2cc(NC(=O)c3cc4ccccc4o3)ccc2n1` [Compound 5], the “solubility of the linker-payload construct under coupling conditions” value was “insufficient”.
